≈ marks a conversion by molar mass, not a printed value.
Assays:
MDR1 = assay: in vitro; settings: dog, MDCK-MDR1
Description: Efflux ratio of apparent permeability across basal to apical side over apical to basal side in dog MDCK-MDR1 cells at 1 uM measured after 1 day by LC-MS/MS analysis

[1] = molecular target: T1, Serine/threonine-protein kinase Chk1 (Homo sapiens, UniProt O14757); assay: Inhibition of N-terminal GST-fused human full length CHK1 (1 to 476 residues) expressed in baculovirus-infected Sf21 cells using STK1 S1 as substrate preincubated for 30 mins in presence of ATP followed by MgCl2 addition and measured after 60 mins by TR-FRET assay
T1 sequence (O14757 whole entry): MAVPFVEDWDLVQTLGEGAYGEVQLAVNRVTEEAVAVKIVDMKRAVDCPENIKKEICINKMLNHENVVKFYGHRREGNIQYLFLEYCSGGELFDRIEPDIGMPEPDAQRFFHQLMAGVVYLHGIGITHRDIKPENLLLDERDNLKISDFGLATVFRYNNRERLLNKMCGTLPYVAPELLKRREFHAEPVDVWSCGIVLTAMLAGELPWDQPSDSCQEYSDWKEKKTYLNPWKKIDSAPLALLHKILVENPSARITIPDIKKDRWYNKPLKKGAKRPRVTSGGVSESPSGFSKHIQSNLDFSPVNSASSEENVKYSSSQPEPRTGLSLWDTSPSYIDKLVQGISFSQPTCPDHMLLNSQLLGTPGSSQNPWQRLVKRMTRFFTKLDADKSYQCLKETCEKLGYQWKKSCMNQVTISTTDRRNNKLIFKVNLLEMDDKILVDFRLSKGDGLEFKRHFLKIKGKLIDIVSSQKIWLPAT

BCRP = assay: in vitro; settings: dog
Description: Efflux ratio of apparent permeability across basal to apical side over apical to basal side in dog MDCK-BCRP cells at 1 uM measured after 1 day by LC-MS/MS analysis

[2] = molecular target: Serine/threonine-protein kinase Chk2 (Homo sapiens, UniProt O96017); assay: biochemical
Sequence of Serine/threonine-protein kinase Chk2 (O96017 whole entry): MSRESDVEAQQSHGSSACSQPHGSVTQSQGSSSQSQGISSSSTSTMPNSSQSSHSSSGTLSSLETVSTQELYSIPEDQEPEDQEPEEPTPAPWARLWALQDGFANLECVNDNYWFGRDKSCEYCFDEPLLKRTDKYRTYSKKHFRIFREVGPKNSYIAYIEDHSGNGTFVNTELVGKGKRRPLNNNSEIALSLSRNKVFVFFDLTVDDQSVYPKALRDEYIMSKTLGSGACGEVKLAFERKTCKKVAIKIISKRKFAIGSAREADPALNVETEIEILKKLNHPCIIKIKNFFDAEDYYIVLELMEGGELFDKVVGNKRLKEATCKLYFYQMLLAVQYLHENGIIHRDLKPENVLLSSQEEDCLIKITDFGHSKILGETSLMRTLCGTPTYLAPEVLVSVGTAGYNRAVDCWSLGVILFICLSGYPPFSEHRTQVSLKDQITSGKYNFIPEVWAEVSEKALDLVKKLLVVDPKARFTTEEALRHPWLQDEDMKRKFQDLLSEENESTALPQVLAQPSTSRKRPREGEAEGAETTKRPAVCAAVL
Description: Inhibition of N-terminal GST-fused human full length CHK2 (1 to 543 residues) expressed in baculovirus-infected Sf21 cells using STK1 S1 as substrate preincubated for 30 mins in presence of ATP followed by MgCl2 addition and measured after 60 mins by TR-FRET assay

[3] = molecular target: T1, Serine/threonine-protein kinase Chk1; assay: Inhibition of human full length recombinant CHK1 using KKKVSRSGLYRSPSMPENLNRPR as substrate in presence of [gamma-33P]ATP incubated for 40 mins by radiometric assay
[4] = Apparent permeability of the compound in dog MDCK-MDR1 cells at 1 uM measured after 1 day by LC-MS/MS analysis; format: ADME, cell-based, Canis lupus familiaris
GBM [5] = assay: Antitumor activity against human patient-derived GBM cells implanted in orthotopic NOG mouse model assessed as lifespan of animal's survival at 50 mg/kg, po qd with dosing schedule of 3 days on and 4 days off for 28 days (reference value: 25.5 days); format: functional; settings: time 28 day
GBM [6] = assay: Antitumor activity against human patient-derived GBM cells implanted in orthotopic NOG mouse model assessed as lifespan of animal's survival at 100 mg/kg, po qd with dosing schedule of 2 days on and 11 days off for 28 days (reference value: 25.5 days); format: functional; settings: time 28 day
[7] = Plasma concentration required to achieve 50% in vivo inhibition of CHK1 assessed as accumulation of CHK1 phosphorylation at Ser345 residue in tumors in po dosed GBM LN-229 CDX NOD/SCID mouse model; format: organism-based; settings: LN-229, Plasma
[8] = molecular target: Sodium channel protein type 5 subunit alpha (Homo sapiens, UniProt Q14524); assay: Inhibition of human Nav1.5 transfected in CHO cells by automated electrophysiological analysis; format: cell-based
Sequence of Sodium channel protein type 5 subunit alpha (Q14524 whole entry): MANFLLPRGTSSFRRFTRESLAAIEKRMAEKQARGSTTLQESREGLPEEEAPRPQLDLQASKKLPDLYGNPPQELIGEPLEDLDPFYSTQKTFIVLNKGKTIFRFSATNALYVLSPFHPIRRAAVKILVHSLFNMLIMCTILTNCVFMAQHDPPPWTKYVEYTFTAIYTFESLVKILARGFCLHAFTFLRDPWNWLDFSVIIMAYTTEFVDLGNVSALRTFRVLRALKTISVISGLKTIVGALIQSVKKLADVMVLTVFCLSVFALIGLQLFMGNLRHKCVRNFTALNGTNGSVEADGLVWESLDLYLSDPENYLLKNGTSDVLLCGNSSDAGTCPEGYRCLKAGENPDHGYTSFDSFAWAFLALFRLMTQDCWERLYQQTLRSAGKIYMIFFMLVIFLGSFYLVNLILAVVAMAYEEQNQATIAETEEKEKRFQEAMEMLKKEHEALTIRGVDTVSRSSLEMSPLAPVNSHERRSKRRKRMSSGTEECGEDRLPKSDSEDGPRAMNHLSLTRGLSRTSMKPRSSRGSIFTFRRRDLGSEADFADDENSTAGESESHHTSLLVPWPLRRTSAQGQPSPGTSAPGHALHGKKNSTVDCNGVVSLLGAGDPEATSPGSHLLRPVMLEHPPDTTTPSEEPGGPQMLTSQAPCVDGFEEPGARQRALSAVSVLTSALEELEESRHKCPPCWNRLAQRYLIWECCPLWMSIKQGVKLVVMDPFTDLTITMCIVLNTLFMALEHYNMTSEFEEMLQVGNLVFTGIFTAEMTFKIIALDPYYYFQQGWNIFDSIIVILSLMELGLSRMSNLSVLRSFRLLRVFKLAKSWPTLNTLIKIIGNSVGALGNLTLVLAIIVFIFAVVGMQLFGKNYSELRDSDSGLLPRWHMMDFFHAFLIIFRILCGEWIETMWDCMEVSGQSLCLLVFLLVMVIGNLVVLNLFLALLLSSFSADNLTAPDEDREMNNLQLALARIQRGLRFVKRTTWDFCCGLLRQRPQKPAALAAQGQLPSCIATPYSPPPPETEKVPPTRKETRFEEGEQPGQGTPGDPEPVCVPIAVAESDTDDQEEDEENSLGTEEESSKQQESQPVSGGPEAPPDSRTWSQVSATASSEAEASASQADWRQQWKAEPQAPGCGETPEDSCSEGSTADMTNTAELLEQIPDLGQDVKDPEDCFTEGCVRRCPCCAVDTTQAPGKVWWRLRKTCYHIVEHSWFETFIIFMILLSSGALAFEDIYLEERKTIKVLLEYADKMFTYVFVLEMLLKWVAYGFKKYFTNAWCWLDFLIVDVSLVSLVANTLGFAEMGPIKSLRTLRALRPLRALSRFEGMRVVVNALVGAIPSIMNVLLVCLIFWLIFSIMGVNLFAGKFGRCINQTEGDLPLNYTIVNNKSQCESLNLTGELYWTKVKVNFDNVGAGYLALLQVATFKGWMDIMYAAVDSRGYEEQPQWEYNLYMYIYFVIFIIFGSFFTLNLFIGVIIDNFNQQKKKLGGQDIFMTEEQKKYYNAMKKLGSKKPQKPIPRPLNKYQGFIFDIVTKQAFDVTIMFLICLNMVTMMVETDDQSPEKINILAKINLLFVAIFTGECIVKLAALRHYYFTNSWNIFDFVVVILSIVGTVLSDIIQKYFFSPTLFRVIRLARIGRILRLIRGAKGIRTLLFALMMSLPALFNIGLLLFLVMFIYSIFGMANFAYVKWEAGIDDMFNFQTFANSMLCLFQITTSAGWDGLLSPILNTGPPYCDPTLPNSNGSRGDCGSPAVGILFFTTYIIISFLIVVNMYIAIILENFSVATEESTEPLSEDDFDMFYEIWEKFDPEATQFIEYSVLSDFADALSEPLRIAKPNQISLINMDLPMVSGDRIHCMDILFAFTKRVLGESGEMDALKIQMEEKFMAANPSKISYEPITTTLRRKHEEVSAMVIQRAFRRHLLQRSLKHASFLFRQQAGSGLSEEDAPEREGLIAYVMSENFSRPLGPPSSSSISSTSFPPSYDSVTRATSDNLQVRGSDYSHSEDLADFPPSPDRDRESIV

[9] = molecular target: T1, Serine/threonine-protein kinase Chk1; assay: Inhibition of CHK1 in neocarzinostatin-stimulated human SW620 cells assessed as inhibition of CHK1 phosphorylation at Ser296 residue incubated for 2 hrs by sandwich ELISA; format: cell-based
[10] = molecular target: Voltage-dependent L-type calcium channel subunit alpha-1C (Homo sapiens, UniProt Q13936); assay: Inhibition of human Cav1.2 transfected in CHO cells by automated electrophysiological analysis; format: cell-based
GBM [11] = assay: Antitumor activity against human patient-derived GBM cells implanted in orthotopic NOG mouse model assessed as lifespan of animal's survival at 30 mg/kg, po qd for 28 days (reference value: 25.5 days); format: functional; settings: time 28 day
[12] = molecular target: Voltage-gated inwardly rectifying potassium channel KCNH2 (Homo sapiens, UniProt Q12809); assay: Inhibition of hERG expressed in HEK cells by electrophysiology; format: toxicity, cell-based
Sequence of Voltage-gated inwardly rectifying potassium channel KCNH2 (Q12809 whole entry): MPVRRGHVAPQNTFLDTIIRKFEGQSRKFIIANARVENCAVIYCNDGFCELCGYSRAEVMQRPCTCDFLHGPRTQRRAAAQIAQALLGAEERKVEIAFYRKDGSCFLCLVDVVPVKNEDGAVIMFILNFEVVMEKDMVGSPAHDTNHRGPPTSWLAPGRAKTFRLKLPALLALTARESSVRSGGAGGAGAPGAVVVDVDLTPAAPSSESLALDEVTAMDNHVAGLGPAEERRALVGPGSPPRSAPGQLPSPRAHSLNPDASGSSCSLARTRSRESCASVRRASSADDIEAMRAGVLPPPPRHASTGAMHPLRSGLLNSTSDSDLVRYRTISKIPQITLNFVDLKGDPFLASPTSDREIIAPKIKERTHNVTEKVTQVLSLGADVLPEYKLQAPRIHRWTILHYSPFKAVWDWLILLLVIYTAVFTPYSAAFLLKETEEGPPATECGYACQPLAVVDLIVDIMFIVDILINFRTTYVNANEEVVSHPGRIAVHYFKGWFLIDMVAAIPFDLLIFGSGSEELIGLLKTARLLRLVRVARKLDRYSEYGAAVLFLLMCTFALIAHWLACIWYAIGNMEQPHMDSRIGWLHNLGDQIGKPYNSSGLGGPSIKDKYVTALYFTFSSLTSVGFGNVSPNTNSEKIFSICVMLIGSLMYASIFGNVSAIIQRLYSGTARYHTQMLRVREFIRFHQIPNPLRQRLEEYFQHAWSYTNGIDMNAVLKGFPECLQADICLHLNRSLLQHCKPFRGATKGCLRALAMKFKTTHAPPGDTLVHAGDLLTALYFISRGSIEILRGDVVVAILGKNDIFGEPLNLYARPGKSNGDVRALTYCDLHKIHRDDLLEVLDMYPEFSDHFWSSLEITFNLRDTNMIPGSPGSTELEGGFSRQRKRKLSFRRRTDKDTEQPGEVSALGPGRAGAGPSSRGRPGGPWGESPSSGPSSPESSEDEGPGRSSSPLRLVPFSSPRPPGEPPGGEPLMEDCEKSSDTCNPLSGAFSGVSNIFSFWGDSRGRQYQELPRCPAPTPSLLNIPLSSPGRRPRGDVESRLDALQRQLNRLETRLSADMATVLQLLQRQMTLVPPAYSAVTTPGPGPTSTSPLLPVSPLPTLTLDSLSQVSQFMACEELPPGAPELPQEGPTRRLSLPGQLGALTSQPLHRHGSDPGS

[13] = Intrinsic clearance in rat liver microsomes measured per mg protein; format: ADME, Microsome; settings: read-out: CLH
in vitro = settings: dog, MDCK
Description: Apparent permeability of the compound across apical to basolateral side in dog MDCK cells at 1 uM measured after 1 day by LC-MS/MS analysis

in vivo = settings: Sprague-Dawley, rat, brain and plasma, iv, 1 mg/kg
Description: Unbound brain-to-plasma concentration ratio in Sprague-Dawley rat at 1 mg/kg, iv measured after 15 mins by rapid equilibrium dialysis method

[14] = Kinetic aqueous solubility of the compound at 250 uM measured after 2 hrs by RP-UPLC-DAD analysis; format: physicochemical; settings: buffer, read-out: Kinetic_solubility
[15] = Intrinsic clearance in human liver microsomes measured per mg protein; format: ADME, Microsome; settings: read-out: CLH
GBM [16] = assay: Antitumor activity against human patient-derived GBM cells implanted in orthotopic NOG mouse model assessed as lifespan of animal's survival at 20 mg/kg, ip qd with dosing schedule of 5 days on and 2 days off for 28 days (reference value: 25.5 days); format: functional; settings: time 28 day

Compound | efflux ratio at 24 h, 1 µM (MDR1) | IC50 [1] [µM] | efflux ratio at 24 h, 1 µM (BCRP) | IC50 [2] [µM] | other results
CN(C)[C@]1(C)CCN(c2ccc(-n3cnc(Nc4cnc(C#N)cn4)c3)cc2)C1 | 3.6 | 0.002 | 1.5 | 1.1 | –
C[C@@H]1CN(c2ccc(-n3cnc(Nc4cnc(C#N)cn4)c3)cc2)C[C@@H]1N(C)C | – | 0.016 | – | > 10 | –
CN(C)[C@H]1CCN(c2ccc(-n3cnc(Nc4cnc(C#N)cn4)c3)cc2)C1 | – | 0.068 | – | – | –
C[C@H]1CN(c2ccc(-n3cnc(Nc4cnc(C#N)cn4)c3)cc2)C[C@@H]1N(C)C | – | 0.004 | – | 2.72 | –
CN(C)C1CCN(c2ccc(-n3cnc(Nc4cnc(C#N)cn4)c3)cc2)CC1 | 26 | 0.011 | 23 | 8.76 | –
CN(C)[C@@H]1CCN(c2ccc(-n3cnc(Nc4cnc(C#N)cn4)c3)cc2)C1 | – | 0.004 | – | – | Survival (GBM [5]): 39.5 days; Survival (GBM [6]): 50 days; IC50 [7]: 0.209 µM; IC50 [8]: > 30 µM; IC50 [9]: 0.45 µM; IC50 [10]: > 30 µM; Survival (GBM [11]): 34 days
CN1CC[C@@H]2CN(c3ccc(-n4cnc(Nc5cnc(C#N)cn5)c4)cc3)C[C@@H]21 | 2.5 | 0.017 | 2.7 | > 10 | –
CCN(C)[C@@H]1CCN(c2ccc(-n3cnc(Nc4cnc(C#N)cn4)c3)cc2)C1 | – | 0.004 | – | 2.07 | –
CN1CC2(CCN(c3nc(Nc4cn(-c5ccccn5)cn4)cnc3C#N)C2)C1 | > 50 | 0.002 | > 50 | – | –
CN1CC2(CCN(c3ccc(-n4cnc(Nc5cnc(C#N)cn5)c4)cc3)C2)C1 | – | 0.012 | – | > 10 | –
Cn1nnc2c(C(N)=O)ncn2c1=O [TEMOZOLOMIDE] | – | – | – | – | Survival (GBM [16]): 43 days

Second part, led by results:

efflux ratio at 24 h, 1 µM (MDR1) | IC50 [1] [µM] | efflux ratio at 24 h, 1 µM (BCRP) | IC50 [2] [µM] | Compound | other results
34 | 0.014 | > 50 | – | CN1CC2(CCN(c3nc(Nc4cn(C(F)F)cn4)cnc3C#N)C2)C1 | –
– | 0.031 | – | – | CN1CC2(C1)CN(c1ccc(-n3cnc(Nc4cnc(C#N)cn4)c3)cc1)C2 | –
– | 0.005 | – | 1.31 | CN(C)[C@H]1CN(c2ccc(-n3cnc(Nc4cnc(C#N)cn4)c3)cc2)C[C@@H]1F | –
– | 0.464 | – | – | Cc1cc(N2CCN(C)CC2)ccc1-n1cnc(Nc2cnc(C#N)cn2)c1 | –
0.6 | – | 1 | – | N#Cc1cnc(Nc2cn(-c3ccccc3)cn2)cn1 | IC50 [3]: 0.549 µM
0.9 | – | – | – | N#Cc1cnc(Nc2cn(C(F)F)cn2)cn1 | IC50 [3]: 3 µM; Papp at 24 h, 1 µM [4]: 66 ×10⁻⁶ cm/s
– | 0.009 | – | > 10 | CN(C)C1CN(c2ccc(-n3cnc(Nc4cnc(C#N)cn4)c3)cc2)C1 | –
– | 0.014 | – | 3.19 | CN(C)[C@H]1CN(c2ccc(-n3cnc(Nc4cnc(C#N)cn4)c3)cc2)C[C@H]1F | –
– | 0.021 | – | – | CCN1CCN(c2ccc(-n3cnc(Nc4cnc(C#N)cn4)c3)cc2)CC1 | –
< 1 | 0.04 | 1.4 | > 10 | N#Cc1cnc(Nc2cn(-c3ccc(N4CCN(CCF)CC4)cc3)cn2)cn1 | –
1.7 | 0.015 | 3.7 | > 10 | CN1CCN(c2ccc(-n3cnc(Nc4cnc(C#N)cn4)c3)cc2)CC1 | IC50 [12]: > 30 µM; microsomal CLint [13]: 47 µL/min/mg; Papp A→B at 24 h, 1 µM (in vitro): 58 ×10⁻⁶ cm/s; Kp uu at […] (in vivo): 0.4; solubility kinetic at 2 h, 250 µM [14]: 59 µM (≈ 21.3 µg/mL); microsomal CLint [15]: < 14 µL/min/mg

From ChEMBL document CHEMBL6177977, “Discovery of a Potent, Selective, and Brain-Penetrant Checkpoint Kinase 1 Inhibitor, BEN-28010, for the Treatment of Glioblastoma” (J Med Chem, 2025)
